Columns and labels:
[1] = tested on: gastric (AGS) cancer cell line; assay: MTS proliferation assay, AGS; format: cell-based, human; settings: for viability (anti-proliferative activity), MTS: as a function of time, triplicate
Text: FIGS. 10A-10F compare anti-proliferative activity of 10 nmoles of compounds −0045 and −0052 against gastric (AGS) (FIGS. 10B and 10C, respectively) and pancreatic (ASPC1) (FIGS. 10E and 10F, respectively) cancer cell lines, as measured as a function of time and compared to palbociclib (−000) (FIGS. 10A-AGS; and 10D-ASPC1) using standard MTS assays in the indicated cell lines; results were in triplicate with reported experimental uncertainty.
FIGS. 11A-11F compare anti-proliferative activity of 5 nmoles of compounds −0045 and −0052 against gastric (AGS) (FIGS. 11B and 11C, respectively) and pancreatic (ASPC1) (FIGS. 11E and 11F, respectively) cancer cell lines, as measured as a function of time and compared to palbociclib (−000) (FIGS. 11A-AGS; and 11D-ASPC1), using standard MTS assays in the indicated cell lines; results were in triplicate with reported experimental uncertainty.
The anti-proliferative activity of compounds −0045 and −0052 in two cell lines characterized by high levels of miR-21 (gastric adenocarcinoma (AGS) and pancreatic (ASPC1) cancer origin) was determined. These experiments were conducted in a double-blind format, without knowledge of the identity or binding activity of the compounds, to avoid any unintentional bias. […] Viability in the presence of both palbociclib and compound −0052 is decreased after approximately 72-96 hrs to a statistically significant extent (data points marked with asterisks are statistically significant).
Cell line maintenance. Using the Cancer Cell Line Encyclopedia (CCLE), in-house cancer cell lines were screened to identify cancer and tissue types with varying levels of miR-21 expression. Experiments were performed using the human-derived cell lines AGS (gastric cancer) and AsPC-1 (pancreatic cancer). Cell lines were obtained from the American Type Culture Collection and maintained per instructions from the supplier. AGS were cultured in F12K medium supplemented with 10% FBS. AsPC-1 were cultured in RPMI, with 10% FBS added. All cells were kept at 37° C. in a humidified atmosphere of 5% CO2 and underwent regular mycoplasma testing. All experiments were conducted when cells were 70-80% confluent.
Proliferation assay. The impact of the compound on cellular proliferation was assessed, with 5,000 cells in each cell line seeded in replicates of 6 in a 96 well plate and treated with DMSO or with compounds. After 48 hours, cells were treated with the MTS reagent and optical density was read to generate dose-response curves.

[2] = tested on: mature miR-10b in ASPC1 cells; assay: qRT-PCR of mature miR-10b in ASPC1 cells; format: cell-based, human; settings: ASPC1, 10 nmoles, 48 hours, relative to DMSO control
Description: FIGS. 14A-14D compare levels of mature miR-10b and pre-miR-10b measured in gastric adenocarcinoma (AGS) (FIGS. 14A and 14B, respectively) and pancreatic cancer cell line (ASPC 1) (FIGS. 14C and 14D, respectively), normalized to internal controls (U6 or U8 snRNA), in the presence of 10 nmoles of palbociclib (a negative control not expected to directly affect miRNA levels) and compounds −0045 and −0052, 48 hours after incubation, relative to DMSO control, and measured by standard qRT-PCR. We notice that levels of pre-miR-10b are very low in both cell lines, rendering the data very uncertain. Statistically significant changes are labeled with asterisks.
In order to investigate whether inhibition was specific to miR-21, levels of mature miR-10b and pre-miR-10b were examined in the same cell lines (FIGS. 14A-14D); this is another oncogenic microRNA implicated in metastasis. […]
Quantitative real time PCR analysis. […] RNA concentration was assessed with the NanoDrop ND-1000 spectrophotometer (ThermoFisher Scientific). […] Expression of miR-21 was assessed utilizing the TaqMan microRNA assay (Applied Biosystems). […] All experiments were performed in triplicate, with all samples normalized to the internal controls and relative expression levels calculated using the 2^ΔΔCt method.

Compound | viability (anti-proliferative activity), MTS ([1]; 5 nmoles of compound) | viability (anti-proliferative activity), MTS ([1]; 10 nmoles of compound) | cell killing activity, MTS over 6 days ([1]; both concentrations tested (10 and 5 nmols), double-blind) | reduction of levels of mature miR-10b [2] | change in levels of mature miR-10b [2]
O=c1[nH]c(Nc2ccc(N3CCNCC3)cn2)nc2cnccc12 [Compound 30] | reduce the viability of both cell lines to a statistically significant extent | reduce the viability of both cell lines to a statistically significant extent | Cell killing activity | about 2 fold | 
O=c1[nH]c(Nc2ccc(N3CCNCC3)cn2)nc2cccnc12 [Compound 25] | does not | does not |  |  | smaller and not statistically significant changes
